What all share (assay type): in vivo
Test [1] has as its system release of FSH. The test is described as follows: Release of FSH in rats after sc injection. The settings on record: for FSH % change: LHRH = 100. The text has this: (§1) The data on the release of LH and FSH in rats by modifications of LHRH with one structural change are in Table II.
(§2) Exclusive of the salmon-LHRH, only one of the six decapeptides with two structural changes had significant activity.

The next test has as its system release of LH. Nature of the test: Release of LH in rats after sc injection. Conditions: for LH % change: LHRH = 100.
Description: as §1, §2

The test system of test [2] is release of FSH. Nature of the test: Release of FSH in rats after sc injection. The settings on record: dose and time as stated in the source.
[3] abbreviates: 60 min. after sc injection, 300 ng.
[4] abbreviates: 60 min. after sc injection, 3000 ng.
Where [5] appears, read: release 60 min. after sc injection, dosage of peptide 300 ng.
The mark [6] stands for this setting: release 60 min. after sc injection, dosage of peptide 3000 ng.
Setting [7] is: release 15 min. after sc injection, dosage of peptide 100 ng.
Setting [8] is: release 15 min. after sc injection, dosage of peptide 1000 ng.
[9] abbreviates: 15 min. after sc injection, 100 ng.
Setting [10] is: 15 min. after sc injection, 1000 ng.
The mark [11] stands for this setting: 30 min. after sc injection, 1000 ng.
Where [12] appears, read: release 30 min. after sc injection, dosage of peptide 50 ng.
Setting [13] is: release 30 min. after sc injection, dosage of peptide 1000 ng.
[14] abbreviates: sc injection, dose and time as stated in the source.

Non-standard residues stand in square brackets, D forms with d. Residues, ends and D or L forms follow the SMILES beside them. pGlu = O=C1CC[C@@H](C(=O)O)N1

As to `NC(=O)CNC(=O)[C@@H]1CCCN1C(=O)[C@H](Cc1ccc(O)cc1)NC(=O)[C@H](Cc1c[nH]c2ccccc12)NC(=O)CNC(=O)[C@H](Cc1ccc(O)cc1)NC(=O)[C@H](CO)NC(=O)[C@H](Cc1c[nH]c2ccccc12)NC(=O)[C@H](Cc1c[nH]cn1)NC(=O)[C@@H]1CCC(=O)N1` [[Trp^7 Tyr^8]--LHRH, p-Glu His Trp Ser Tyr Gly Trp Tyr Pro Gly-NH2] ([pGlu]HWSYGWYPG-NH2), the FSH % change came out at 35% with release of FSH [1] (setting [3]) and 30% in the test on release of FSH [1] (setting [4]). The FSH in the test on release of FSH [1] (setting [5]) was 209 ng/mL; in the test with release of FSH [1] (setting [6]), 352 ng/mL. Further, the values for the LH % change in the test with release of LH (setting [3]) and in the test on release of LH (setting [4]) were 25% and 4.6%, respectively. The LH with release of LH (setting [5]) turned out to be 2.8 ng/mL; in the test on release of LH (setting [6]), 3.8 ng/mL.

In the case of `CC(C)C[C@H](NC(=O)[C@H](Cc1c[nH]c2ccccc12)NC(=O)CNC(=O)[C@H](Cc1c[nH]cn1)NC(=O)[C@H](CO)NC(=O)[C@H](Cc1c[nH]c2ccccc12)NC(=O)[C@H](Cc1c[nH]cn1)NC(=O)[C@@H]1CCC(=O)N1)C(=O)N1CCC[C@H]1C(=O)NCC(N)=O` [[His^5 Trp^7 Leu^8]--LHRH, p-Glu His Trp Ser His Gly Trp Leu Pro Gly-NH2] ([pGlu]HWSHGWLPG-NH2), the “release of FSH compared with LHRH” value in the test on release of FSH [2] is reported as “equivalent in activity to LHRH”; in the test with release of FSH [2] (Trp^7 Leu^8 ]-LHRH), “released as much FSH as LHRH”. Also, the FSH % change with release of FSH [1] (setting [3]) stood at 62%; in the test on release of FSH [1] (setting [4]), 32%. Besides, the FSH in the test on release of FSH [1] (setting [7]) was 383 ng/mL; with release of FSH [1] (setting [8]), 445 ng/mL; in the test on release of FSH [1] (setting [5]), 369 ng/mL; with release of FSH [1] (setting [6]), 376 ng/mL. Moreover, the LH % change with release of LH (setting [9]) came to 38%; in the test with release of LH (setting [10]), 40%; in the test with release of LH (setting [3]), 23%; with release of LH (setting [4]), 6%. Also, the “LH released, % of the LH released by LHRH” value in the test on release of LH (levels of 100 and 1000 ng) was “up to 50%”. The LH was 9 ng/mL with release of LH (setting [7]), 23 ng/mL in the test on release of LH (setting [8]), 2.5 ng/mL with release of LH (setting [5]) and 5 ng/mL in the test with release of LH (setting [6]).

On to `CC(C)C[C@H](NC(=O)CNC(=O)[C@H](Cc1c[nH]cn1)NC(=O)[C@H](CO)NC(=O)[C@H](Cc1c[nH]c2ccccc12)NC(=O)[C@H](Cc1c[nH]cn1)NC(=O)[C@@H]1CCC(=O)N1)C(=O)N[C@@H](CC(C)C)C(=O)N1CCC[C@H]1C(=O)NCC(N)=O` [[His^5 Leu^8]--LHRH, p-Glu His Trp Ser His Gly Leu Leu Pro Gly-NH2] ([pGlu]HWSHGLLPG-NH2), for which the FSH % change with release of FSH [1] (setting [9]) is recorded as 43%; in the test on release of FSH [1] (setting [10]), 57%; in the test on release of FSH [1] (setting [3]), 44%; in the test with release of FSH [1] (setting [4]), 18%. Besides, the FSH in the test with release of FSH [1] (setting [7]) came to 202 ng/mL; in the test with release of FSH [1] (setting [8]) it was 276 ng/mL; in the test on release of FSH [1] (setting [5]), 261 ng/mL; with release of FSH [1] (setting [6]) it was 205 ng/mL. The LH % change in the test on release of LH (setting [9]) was found to be 0.8%; in the test with release of LH (setting [10]) it was 5%; in the test on release of LH (setting [3]) it was 20%; with release of LH (setting [4]), 2.2%. In addition, the LH is 0.2 ng/mL in the test with release of LH (setting [7]), 3.3 ng/mL in the test on release of LH (setting [8]), 2.2 ng/mL in the test on release of LH (setting [5]) and 1.8 ng/mL in the test with release of LH (setting [6]).

Consider `CC(C)C[C@H](NC(=O)CNC(=O)[C@H](Cc1c[nH]cn1)NC(=O)[C@H](CO)NC(=O)[C@H](Cc1c[nH]c2ccccc12)NC(=O)[C@H](Cc1c[nH]cn1)NC(=O)[C@@H]1CCC(=O)N1)C(=O)N[C@@H](Cc1ccc(O)cc1)C(=O)N1CCC[C@H]1C(=O)NCC(N)=O` [[His^5 Tyr^8]--LHRH, p-Glu His Trp Ser His Gly Leu Tyr Pro Gly-NH2] ([pGlu]HWSHGLYPG-NH2), for which the FSH % change in the test on release of FSH [1] (setting [11]) worked out at 3%; with release of FSH [1] (setting [4]), 42%. Also, the FSH was found to be 235 ng/mL in the test with release of FSH [1] (setting [12]), 534 ng/mL in the test with release of FSH [1] (setting [13]) and 495 ng/mL in the test on release of FSH [1] (setting [6]). For the same compound, the LH % change with release of LH (30 min. after sc injection, 50 ng) is recorded as 3%; with release of LH (setting [11]) it was 4%; in the test with release of LH (setting [4]) it was 3.4%. Further, the LH in the test on release of LH (setting [12]) was 0.5 ng/mL; in the test with release of LH (setting [13]), 5.0 ng/mL; in the test on release of LH (setting [6]) it was 2.8 ng/mL.

Regarding `CC(C)C[C@H](NC(=O)CNC(=O)[C@H](Cc1ccc(O)cc1)NC(=O)[C@H](CO)NC(=O)[C@H](Cc1c[nH]c2ccccc12)NC(=O)[C@H](Cc1c[nH]cn1)NC(=O)[C@@H]1CCC(=O)N1)C(=O)N[C@@H](Cc1ccc(O)cc1)C(=O)N1CCC[C@H]1C(=O)NCC(N)=O` [[Tyr^8]--LHRH, p-Glu His Trp Ser Tyr Gly Leu Tyr Pro Gly-NH2], the FSH % change in the test with release of FSH [1] (setting [3]) turned out to be 48%; with release of FSH [1] (setting [4]) it was 38%. Further, the FSH in the test on release of FSH [1] (setting [5]) is 285 ng/mL; in the test on release of FSH [1] (setting [6]) it was 449 ng/mL. In the test on release of FSH [1] (setting [14]), the “release of FSH compared with LHRH” value is “relatively low activities”. Besides, the LH % change in the test with release of LH (setting [3]) is recorded as 23%; in the test on release of LH (setting [4]), 3%. The LH with release of LH (setting [5]) turned out to be 2.5 ng/mL; with release of LH (setting [6]), 2.7 ng/mL. The “release of LH compared with LHRH” value with release of LH (setting [14]) was “relatively low activities”.

For the compound `CC(C)C[C@H](NC(=O)CNC(=O)[C@H](Cc1c[nH]cn1)NC(=O)[C@H](CO)NC(=O)[C@H](Cc1c[nH]c2ccccc12)NC(=O)[C@H](Cc1c[nH]cn1)NC(=O)[C@@H]1CCC(=O)N1)C(=O)N[C@@H](CCC(N)=O)C(=O)N1CCC[C@H]1C(=O)NCC(N)=O` [[His^5 Gln^8]--LHRH, p-Glu His Trp Ser His Gly Leu Gln Pro Gly-NH2] ([pGlu]HWSHGLQPG-NH2), the FSH % change in the test with release of FSH [1] (setting [3]) is on record as 48%; in the test on release of FSH [1] (setting [4]), 39%. Moreover, the FSH in the test on release of FSH [1] (setting [7]) turned out to be 343 ng/mL; in the test on release of FSH [1] (setting [8]), 416 ng/mL; with release of FSH [1] (setting [5]) it was 283 ng/mL; in the test on release of FSH [1] (setting [6]), 456 ng/mL. Also, the LH % change in the test with release of LH (setting [9]) is given as 29%; in the test on release of LH (setting [10]), 47%; in the test on release of LH (setting [3]), 30%; in the test with release of LH (setting [4]), 8.3%. Besides, the LH is 7 ng/mL in the test on release of LH (setting [7]), 27 ng/mL with release of LH (setting [8]), 3.3 ng/mL in the test on release of LH (setting [5]) and 6.8 ng/mL with release of LH (setting [6]).

Consider `NC(=O)CC[C@H](NC(=O)[C@H](Cc1c[nH]c2ccccc12)NC(=O)CNC(=O)[C@H](Cc1ccc(O)cc1)NC(=O)[C@H](CO)NC(=O)[C@H](Cc1c[nH]c2ccccc12)NC(=O)[C@H](Cc1c[nH]cn1)NC(=O)[C@@H]1CCC(=O)N1)C(=O)N1CCC[C@H]1C(=O)NCC(N)=O` [[Trp^7 Gln^8]--LHRH, p-Glu His Trp Ser Tyr Gly Trp Gln Pro Gly-NH2] ([pGlu]HWSYGWQPG-NH2), for which the FSH % change in the test on release of FSH [1] (setting [3]) is on record as 58%; in the test on release of FSH [1] (setting [4]) it was 40%. Also, the FSH in the test on release of FSH [1] (setting [7]) is 421 ng/mL; in the test on release of FSH [1] (setting [8]) it was 502 ng/mL; in the test on release of FSH [1] (setting [5]), 345 ng/mL; in the test with release of FSH [1] (setting [6]) it was 474 ng/mL. The LH % change with release of LH (setting [9]) is on record as 29%; in the test with release of LH (setting [10]), 60%; with release of LH (setting [3]), 29%; in the test with release of LH (setting [4]) it was 9.1%. The LH in the test on release of LH (setting [7]) worked out at 7 ng/mL; in the test on release of LH (setting [8]) it was 34 ng/mL; in the test with release of LH (setting [5]), 3.2 ng/mL; in the test on release of LH (setting [6]), 7.5 ng/mL.

The record behind these values is US4721775A, “Effective peptides related to the luteinizing hormone releasing hormone from L-amino acids” (Board of Regents, The University of Texas System, priority 1985, dated 1988).
